# pIC50: −log10 of the molar value.
# Tests used:
# [1] = test system: VcROM; experiment: Activity-based probe; conditions: 50 μM
# [2] = biological target: T1, E. coli GlpG (Escherichia coli, UniProt P09391)
# [3] = biological target: wild-type GlpG (Escherichia coli, UniProt P09391); conditions: 50 μM inhibitor, 23 °C overnight
# [4] = test system: AaROM; experiment: Activity-based probe; conditions: 50 μM
# [5] = biological target: HiGlpG (Haemophilus influenzae, UniProt P44783); experiment: Activity-based probe; conditions: 50 μM
# [6] = biological target: neutrophil elastase, ELA2 (Homo sapiens, UniProt P08246); conditions: same concentration range in which GlpG is inhibited
# [7] = test system: MjROM; experiment: Activity-based probe; conditions: 50 μM
# [8] = biological target: PsAarA (Providencia stuartii, UniProt P46116); experiment: Activity-based probe; conditions: 50 μM
# [9] = test system: TmROM; experiment: Activity-based probe; conditions: 50 μM
# [10] = biological target: GlpG (Escherichia coli, UniProt P09391); conditions: 1 h preincubation at 10 times IC50, 100-fold dilution, 100 min
# [11] = test system: AaROM; experiment: AaROM in vitro activity assay; type: biochemical, Aquifex aeolicus
# [12] = biological target: T1, E. coli GlpG; experiment: GlpG in vitro activity assay; type: biochemical; conditions: read-out: IC50 [μM] GlpG; inhibitor preincubated 30 min at 37 °C, Gurken substrate, 90 min
# [13] = biological target: bovine chymotrypsin (Bos taurus, UniProt P00766); conditions: read-out: IC50 α-chymotrypsin, value reported in the literature; cited from earlier work
# [14] = test system: nine different rhomboid proteases; experiment: Activity-based probe; type: binding; conditions: 50 μM
# [15] = test system: rhomboids; conditions: read-out: IC50 against rhomboids; isocoumarins; cited from earlier work
# GlpG, sequence (P09391 whole entry): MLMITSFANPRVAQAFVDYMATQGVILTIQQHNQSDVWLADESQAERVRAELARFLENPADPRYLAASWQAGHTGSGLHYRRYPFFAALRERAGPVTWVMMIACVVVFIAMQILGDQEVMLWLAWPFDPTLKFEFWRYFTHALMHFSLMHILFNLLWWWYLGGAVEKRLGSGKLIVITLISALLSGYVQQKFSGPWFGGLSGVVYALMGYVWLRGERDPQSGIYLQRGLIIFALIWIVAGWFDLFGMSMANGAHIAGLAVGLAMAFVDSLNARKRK
# T1 sequence (P09391 whole entry): as above
# PsAarA, sequence (P46116 whole entry): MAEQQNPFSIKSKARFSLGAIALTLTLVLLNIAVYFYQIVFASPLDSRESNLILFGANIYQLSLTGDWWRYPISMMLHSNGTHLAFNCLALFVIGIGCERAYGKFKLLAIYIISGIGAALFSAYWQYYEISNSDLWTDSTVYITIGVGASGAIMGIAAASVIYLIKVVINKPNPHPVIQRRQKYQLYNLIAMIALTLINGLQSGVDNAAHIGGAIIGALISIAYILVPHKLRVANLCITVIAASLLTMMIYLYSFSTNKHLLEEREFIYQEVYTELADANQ
# HiGlpG, sequence (P44783 whole entry): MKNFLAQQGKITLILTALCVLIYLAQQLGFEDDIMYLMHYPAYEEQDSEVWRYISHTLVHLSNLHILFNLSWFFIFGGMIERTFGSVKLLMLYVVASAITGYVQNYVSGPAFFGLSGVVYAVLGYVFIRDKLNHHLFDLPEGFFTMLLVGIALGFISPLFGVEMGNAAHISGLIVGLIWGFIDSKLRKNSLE
# wild-type GlpG, sequence (P09391 whole entry): as the sequence (P09391 whole entry) above
# neutrophil elastase, ELA2, sequence (P08246 30-267): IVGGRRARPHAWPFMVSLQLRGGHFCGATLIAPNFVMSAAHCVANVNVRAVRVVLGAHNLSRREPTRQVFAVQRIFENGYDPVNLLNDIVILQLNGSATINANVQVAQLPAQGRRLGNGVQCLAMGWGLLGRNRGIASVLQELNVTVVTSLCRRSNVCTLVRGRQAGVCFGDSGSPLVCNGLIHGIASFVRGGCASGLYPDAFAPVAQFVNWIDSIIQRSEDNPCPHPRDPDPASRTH
SMILES,"inhibition of ABP labelling, VcROM [1]","inhibition of ABP labelling, E. coli GlpG [2]",mass shift of inhibitor-GlpG adduct [3],"inhibition of ABP labelling, AaROM [4]","inhibition of ABP labelling, HiGlpG [5]","inhibition of neutrophil elastase, ELA2 [6]","inhibition of ABP labelling, MjROM [7]","inhibition of ABP labelling, PsAarA [8]","inhibition of ABP labelling, TmROM [9]",recovery of GlpG activity after rapid dilution [10],fold lower potency toward AaROM in comparison to GlpG [11],IC50 [12],pIC50 [13],inhibition of the activity of all nine rhomboids [14],pIC50 [15]
O=C(OCN1C(=O)c2ccccc2S1(=O)=O)c1ccccc1Cl [BSc5195],active,active,195 Da,only partially inhibited,active,appreciable inhibition,active,active,only partially inhibited,less but noticeable recovery of GlpG activity,approximately 100 fold,–,–,–,–
"O=c1oc(Cl)c(Cl)c2ccccc12 [DCI, dichloroisocoumarin]",–,–,–,–,–,–,–,–,–,–,–,19 µM,5.55,80–100%,–
"COc1oc(=O)c2cc(N)ccc2c1Cl [JLK-6, reference compound]",–,–,–,–,–,–,–,–,–,No recovery of enzyme activity,–,–,–,–,~5.22

# Source: PMC6040592 (Biochemistry, 2017)
